Experimental data: patent US11472778B2, “Hepatitis C virus NS3/4A protease inhibitors” (priority 2017, dated 2022)
Read-outs that look alike come from different tables or passages of the source.

Tests used:
Format in all cases: biochemical, Hepatitis C virus
[1] = biological target: T1, GT1a D168A NS3/4A protease (UniProt P27958, D1194A, species not given)
T1 construct: rows headed: Ki (nM) D168A; Ki D168A; other: D168A variant
In short: (§1)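 NS3/4A protease (2 nM; wild-type GT1a or D168A) pre-incubated 1 h at room temperature with increasing inhibitor in 50 mM Tris pH 7.5, 5% glycerol, 10 mM DTT, 0.6 mM LDAO, 4% DMSO. Ki from three independent data sets per construct; ΔG=RTlnKi.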

[2] = biological target: GT1a D168A NS3/4A protease; details: fold change in Ki, D168A relative to WT
In short: as §1

[3] = biological target: T2, wild-type GT1a NS3/4A protease (UniProt P27958)
T2 construct: Ki WT; other: wild-type HCV NS3/4A protease
In short: as §1

[4] = biological target: GT1a R155K NS3/4A protease (UniProt P27958, R1181K, species not given)
Method: (§2) For each assay, 2 nM of NS3/4A protease (GT1a, R155K and D168A) was pre-incubated at room temperature for 1 h with increasing concentration of inhibitors in assay buffer (50 mM Tris, 5% glycerol, 10 mM DTT, 0.6 mM LDAO, and 4% dimethyl sulfoxide, pH 7.5). Inhibition assays were performed in non-binding surface 96-well black half-area plates (Corning) in a reaction volume of 60 μL. […] Three independent data sets were collected for each inhibitor with each protease construct. […] Gibbs free energy of binding was calculated using the following equation: ΔG=RTlnKi

[5] = biological target: GT1a R155K NS3/4A protease; details: fold change in Ki, R155K relative to WT
Method: as §2

[6] = read-out: Ki (nM) D168A, Table 8, linear inhibitors
[7] = read-out: Ki D168A, D168A variant
[8] = read-out: Ki (nM) WT, Table 8, linear inhibitors
[9] = read-out: Ki WT, wild-type HCV NS3/4A protease
[10] = read-out: Ki (nM) R155K, Table 8, linear inhibitors
[11] = read-out: Ki R155K, R155K variant

C=C[C@@H]1C[C@]1(NC(=O)[C@@H]1C[C@@H](Oc2nc3cc(OC)ccc3nc2C(C)C)CN1C(=O)[C@@H](NC(=O)OC(C)(C)C)C(C)(C)C)C(=O)NS(=O)(=O)C1CC1 [Compound 9c, tert-Butyl ((S)-1-((2S,4R)-2-(((1R,2S)-1-((cyclopropylsulfonyl)carbamoyl)-2-vinylcyclopropyl)carbamoyl)-4-((3-isopropyl-7-methoxyquinoxalin-2-yl)oxy)pyrrolidin-1-yl)-3,3-dimethyl-1-oxobutan-2-yl)carbamate]
Ki [1, 6]: 1090 ± 137 nM
Ki [1, 7]: 1090 ± 137 nM
Ki D168A (fold change) [2]: 34
Ki [3, 8]: 32 ± 5.1 nM
Ki [3, 9]: 32 ± 5.1 nM
Ki [4, 10]: 49 ± 11 nM
Ki [4, 11]: 49 ± 11 nM
Ki R155K (fold change) [5]: 1.5

C=C[C@@H]1C[C@]1(NC(=O)[C@@H]1C[C@@H](Oc2nc3cc(OC)ccc3nc2CC)CN1C(=O)[C@@H](NC(=O)OC(C)(C)C)C(C)(C)C)C(=O)NS(=O)(=O)C1(C)CC1 [Compound 10a, tert-Butyl ((S)-1-((2S,4R)-4-((3-ethyl-7-methoxyquinoxalin-2-yl)oxy)-2-(((1R,2S)-1-(((1-methylcyclopropyl)sulfonyl)carbamoyl)-2-vinylcyclopropyl)carbamoyl)pyrrolidin-1-yl)-3,3-dimethyl-1-oxobutan-2-yl)carbamate]
Ki [1, 6]: 385 ± 31 nM
Ki [1, 7]: 385 ± 31 nM
Ki D168A (fold change) [2]: 24
Ki [3, 8]: 16 ± 1.3 nM
Ki [3, 9]: 16 ± 1.3 nM
Ki [4, 10]: 14 ± 1.1 nM
Ki [4, 11]: 14 ± 1.1 nM
Ki R155K (fold change) [5]: 0.9

C=C[C@@H]1C[C@]1(NC(=O)[C@@H]1C[C@@H](Oc2nc3cc(OC)ccc3nc2C(F)(F)F)CN1C(=O)[C@@H](NC(=O)OC(C)(C)C)C(C)(C)C)C(=O)NS(=O)(=O)C1(C)CC1 [Compound 10e, tert-Butyl ((S)-1-((2S,4R)-4-((7-methoxy-3-(trifluoromethyl)quinoxalin-2-yl)oxy)-2-(((1R,2S)-1-(((1-methylcyclopropyl)sulfonyl)carbamoyl)-2-vinylcyclopropyl)carbamoyl)pyrrolidin-1-yl)-3,3-dimethyl-1-oxobutan-2-yl)carbamate]
Ki [1, 6]: 513 ± 50 nM
Ki [1, 7]: 513 ± 50 nM
Ki D168A (fold change) [2]: 11
Ki [3, 8]: 46 ± 9.6 nM
Ki [3, 9]: 46 ± 9.6 nM
Ki [4, 10]: 12 ± 1.7 nM
Ki [4, 11]: 12 ± 1.7 nM
Ki R155K (fold change) [5]: 0.3

C=C[C@@H]1C[C@]1(NC(=O)[C@@H]1C[C@@H](Oc2nc3cc(OC)ccc3nc2CC)CN1C(=O)[C@@H](NC(=O)OC1CCCC1)C(C)(C)C)C(=O)NS(=O)(=O)C1(C)CC1 [Compound 12a, Cyclopentyl ((S)-1-((2S,4R)-4-((3-ethyl-7-methoxyquinoxalin-2-yl)oxy)-2-(((1R,2S)-1-(((1-methylcyclopropyl)sulfonyl)carbamoyl)-2-vinylcyclopropyl)carbamoyl)pyrrolidin-1-yl)-3,3-dimethyl-1-oxobutan-2-yl)carbamate]
Ki [1, 6]: 145 nM
Ki [1, 7]: 145 ± 14 nM
Ki D168A (fold change) [2]: 21
Ki [3, 8]: 6.9 nM
Ki [3, 9]: 6.9 ± 0.5 nM
Ki [4, 10]: 13 ± 2.7 nM
Ki [4, 11]: 13 ± 2.7 nM
Ki R155K (fold change) [5]: 1.9

C=C[C@@H]1C[C@]1(NC(=O)[C@@H]1C[C@@H](Oc2nc3cc(OC)ccc3nc2C)CN1C(=O)[C@@H](NC(=O)OC(C)(C)C)C(C)(C)C)C(=O)NS(=O)(=O)C1CC1 [Compound 9b, tert-Butyl ((S)-1-((2S,4R)-2-(((1R,2S)-1-((cyclopropylsulfonyl)carbamoyl)-2-vinylcyclopropyl)carbamoyl)-4-((7-methoxy-3-methylquinoxalin-2-yl)oxy)pyrrolidin-1-yl)-3,3-dimethyl-1-oxobutan-2-yl)carbamate]
Ki [1, 6]: 290 ± 24 nM
Ki [1, 7]: 290 ± 24 nM
Ki D168A (fold change) [2]: 16
Ki [3, 8]: 18 ± 1.6 nM
Ki [3, 9]: 18 ± 1.6 nM
Ki [4, 10]: 8.5 ± 2.1 nM
Ki [4, 11]: 8.5 ± 2.1 nM
Ki R155K (fold change) [5]: 0.5

C=C[C@@H]1C[C@]1(NC(=O)[C@@H]1C[C@@H](Oc2nc3cc(OC)ccc3nc2C(F)(F)F)CN1C(=O)[C@@H](NC(=O)OC1CCCC1)C(C)(C)C)C(=O)NS(=O)(=O)C1CC1 [Compound 11e, Cyclopentyl ((S)-1-((2S,4R)-2-(((1R,2S)-1-((cyclopropylsulfonyl)carbamoyl)-2-vinylcyclopropyl)carbamoyl)-4-((7-methoxy-3-(trifluoromethyl)quinoxalin-2-yl)oxy)pyrrolidin-1-yl)-3,3-dimethyl-1-oxobutan-2-yl)carbamate]
Ki [1, 6]: 703 ± 63 nM
Ki [1, 7]: 703 ± 63 nM
Ki D168A (fold change) [2]: 21
Ki [3, 8]: 34 ± 8.3 nM
Ki [3, 9]: 34 ± 8.3 nM
Ki [4, 10]: 26 ± 7.7 nM
Ki [4, 11]: 26 ± 7.7 nM
Ki R155K (fold change) [5]: 0.8

C=C[C@@H]1C[C@]1(NC(=O)[C@@H]1C[C@@H](Oc2nc3cc(OC)ccc3nc2C(C)C)CN1C(=O)[C@@H](NC(=O)OC1CCCC1)C(C)(C)C)C(=O)NS(=O)(=O)C1CC1 [Compound 11c, Cyclopentyl ((S)-1-((2S,4R)-2-(((1R,2S)-1-((cyclopropylsulfonyl)carbamoyl)-2-vinylcyclopropyl)carbamoyl)-4-((3-isopropyl-7-methoxyquinoxalin-2-yl)oxy)pyrrolidin-1-yl)-3,3-dimethyl-1-oxobutan-2-yl)carbamate]
Ki [1, 6]: 985 ± 106 nM
Ki [1, 7]: 985 ± 106 nM
Ki D168A (fold change) [2]: 58
Ki [3, 8]: 17 ± 3.2 nM
Ki [3, 9]: 17 ± 3.2 nM
Ki [4, 10]: 55 ± 11 nM
Ki [4, 11]: 55 ± 11 nM
Ki R155K (fold change) [5]: 3

C=C[C@@H]1C[C@]1(NC(=O)[C@@H]1C[C@@H](Oc2nc3cc(OC)ccc3nc2C(F)(F)F)CN1C(=O)[C@@H](NC(=O)OC1CCCC1)C(C)(C)C)C(=O)NS(=O)(=O)C1(C)CC1 [Compound 12e, Cyclopentyl ((S)-1-((2S,4R)-4-((7-methoxy-3-(trifluoromethyl)quinoxalin-2-yl)oxy)-2-(((1R,2S)-1-(((1-methylcyclopropyl)sulfonyl)carbamoyl)-2-vinylcyclopropyl)carbamoyl)pyrrolidin-1-yl)-3,3-dimethyl-1-oxobutan-2-yl)carbamate]
Ki [1, 6]: 516 ± 61 nM
Ki [1, 7]: 516 ± 61 nM
Ki D168A (fold change) [2]: 24
Ki [3, 8]: 22 ± 3.4 nM
Ki [3, 9]: 22 ± 3.4 nM
Ki [4, 10]: 22 ± 6.9 nM
Ki [4, 11]: 22 ± 6.9 nM
Ki R155K (fold change) [5]: 1.0

C=C[C@@H]1C[C@]1(NC(=O)[C@@H]1C[C@@H](Oc2nc3cc(OC)ccc3nc2C(F)(F)F)CN1C(=O)[C@@H](NC(=O)OC(C)(C)C)C(C)(C)C)C(=O)NS(=O)(=O)C1CC1 [Compound 9e, tert-Butyl ((S)-1-((2S,4R)-2-(((1R,2S)-1-((cyclopropylsulfonyl)carbamoyl)-2-vinylcyclopropyl)carbamoyl)-4-((7-methoxy-3-(trifluoromethyl)quinoxalin-2-yl)oxy)pyrrolidin-1-yl)-3,3-dimethyl-1-oxobutan-2-yl)carbamate]
Ki [1, 6]: 723 ± 80 nM
Ki [1, 7]: 723 ± 80 nM
Ki D168A (fold change) [2]: 8
Ki [3, 8]: 87 ± 18 nM
Ki [3, 9]: 87 ± 18 nM
Ki [4, 10]: 24 ± 3.3 nM
Ki [4, 11]: 24 ± 3.3 nM
Ki R155K (fold change) [5]: 0.3

C=C[C@@H]1C[C@]1(NC(=O)[C@@H]1C[C@@H](Oc2nc3cc(OC)ccc3nc2C(C)C)CN1C(=O)[C@@H](NC(=O)OC1CCCC1)C(C)(C)C)C(=O)NS(=O)(=O)C1(C)CC1 [Compound 12c, Cyclopentyl ((S)-1-((2S,4R)-4-((3-isopropyl-7-methoxyquinoxalin-2-yl)oxy)-2-(((1R,2S)-1-(((1-methylcyclopropyl)sulfonyl)carbamoyl)-2-vinylcyclopropyl)carbamoyl)pyrrolidin-1-yl)-3,3-dimethyl-1-oxobutan-2-yl)carbamate]
Ki [1, 6]: 1000 ± 80 nM
Ki [1, 7]: 1000 ± 80 nM
Ki D168A (fold change) [2]: 48
Ki [3, 8]: 21 ± 2.6 nM
Ki [3, 9]: 21 ± 2.6 nM
Ki [4, 10]: 43 ± 11 nM
Ki [4, 11]: 43 ± 11 nM
Ki R155K (fold change) [5]: 2.0

C=C[C@@H]1C[C@]1(NC(=O)[C@@H]1C[C@@H](Oc2nc3cc(OC)ccc3nc2CC)CN1C(=O)[C@@H](NC(=O)OC1CCCC1)C(C)(C)C)C(=O)NS(=O)(=O)C1CC1 [Compound 11a, Cyclopentyl ((S)-1-((2S,4R)-2-(((1R,2S)-1-((cyclopropylsulfonyl)carbamoyl)-2-vinylcyclopropyl)carbamoyl)-4-((3-ethyl-7-methoxyquinoxalin-2-yl)oxy)pyrrolidin-1-yl)-3,3-dimethyl-1-oxobutan-2-yl)carbamate]
Ki [1, 6]: 350 ± 30 nM
Ki [1, 7]: 350 ± 30 nM
Ki D168A (fold change) [2]: 36
Ki [3, 8]: 9.8 ± 2 nM
Ki [3, 9]: 9.8 ± 2 nM
Ki [4, 10]: 15 ± 2.2 nM
Ki [4, 11]: 15 ± 2.2 nM
Ki R155K (fold change) [5]: 1.5
